In assay [1] the target is Mitogen-activated protein kinase 8 (Homo sapiens, UniProt P45983).
Assay [2] deals with Citron Rho-interacting kinase (Homo sapiens, UniProt O14578).
The target in assay [3] is T1, Serine/threonine-protein kinase LATS1 (Homo sapiens, UniProt O95835).
T1 sequence (O95835 whole entry): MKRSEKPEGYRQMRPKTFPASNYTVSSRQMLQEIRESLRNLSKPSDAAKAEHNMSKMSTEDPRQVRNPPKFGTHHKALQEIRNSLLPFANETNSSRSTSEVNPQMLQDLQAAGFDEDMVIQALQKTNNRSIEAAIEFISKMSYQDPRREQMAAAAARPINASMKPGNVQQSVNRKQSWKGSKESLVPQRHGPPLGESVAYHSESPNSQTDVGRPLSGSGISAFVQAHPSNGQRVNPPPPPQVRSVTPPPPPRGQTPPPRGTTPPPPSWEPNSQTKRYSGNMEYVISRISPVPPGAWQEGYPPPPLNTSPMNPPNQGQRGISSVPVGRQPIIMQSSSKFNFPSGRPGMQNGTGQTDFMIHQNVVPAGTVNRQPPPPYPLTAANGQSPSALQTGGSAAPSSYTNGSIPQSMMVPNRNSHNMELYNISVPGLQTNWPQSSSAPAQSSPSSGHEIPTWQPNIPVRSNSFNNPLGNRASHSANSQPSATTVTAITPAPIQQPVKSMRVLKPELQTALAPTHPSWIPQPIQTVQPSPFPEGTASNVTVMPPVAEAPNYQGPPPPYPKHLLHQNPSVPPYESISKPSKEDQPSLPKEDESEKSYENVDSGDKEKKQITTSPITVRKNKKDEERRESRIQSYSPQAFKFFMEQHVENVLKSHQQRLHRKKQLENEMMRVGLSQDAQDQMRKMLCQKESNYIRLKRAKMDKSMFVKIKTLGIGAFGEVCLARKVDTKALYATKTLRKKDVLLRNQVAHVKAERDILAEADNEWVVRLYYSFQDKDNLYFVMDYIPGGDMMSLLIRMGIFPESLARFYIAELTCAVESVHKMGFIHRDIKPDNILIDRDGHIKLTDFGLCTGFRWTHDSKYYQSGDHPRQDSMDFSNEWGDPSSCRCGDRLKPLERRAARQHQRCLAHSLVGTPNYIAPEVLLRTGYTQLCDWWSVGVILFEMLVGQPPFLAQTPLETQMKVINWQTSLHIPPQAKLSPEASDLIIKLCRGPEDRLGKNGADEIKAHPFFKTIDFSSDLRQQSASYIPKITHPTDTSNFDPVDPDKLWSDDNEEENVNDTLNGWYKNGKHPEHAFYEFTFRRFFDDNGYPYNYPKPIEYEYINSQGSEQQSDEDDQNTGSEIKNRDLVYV

A further assay addresses Insulin receptor (Homo sapiens, UniProt P06213).
Assay [4] has as its target Tyrosine-protein kinase ABL1 (Homo sapiens, UniProt P00519).
For assay [5], the target named is Mitogen-activated protein kinase 7 (Homo sapiens, UniProt Q13164).
Chain of Mitogen-activated protein kinase 7 (Q13164 whole entry): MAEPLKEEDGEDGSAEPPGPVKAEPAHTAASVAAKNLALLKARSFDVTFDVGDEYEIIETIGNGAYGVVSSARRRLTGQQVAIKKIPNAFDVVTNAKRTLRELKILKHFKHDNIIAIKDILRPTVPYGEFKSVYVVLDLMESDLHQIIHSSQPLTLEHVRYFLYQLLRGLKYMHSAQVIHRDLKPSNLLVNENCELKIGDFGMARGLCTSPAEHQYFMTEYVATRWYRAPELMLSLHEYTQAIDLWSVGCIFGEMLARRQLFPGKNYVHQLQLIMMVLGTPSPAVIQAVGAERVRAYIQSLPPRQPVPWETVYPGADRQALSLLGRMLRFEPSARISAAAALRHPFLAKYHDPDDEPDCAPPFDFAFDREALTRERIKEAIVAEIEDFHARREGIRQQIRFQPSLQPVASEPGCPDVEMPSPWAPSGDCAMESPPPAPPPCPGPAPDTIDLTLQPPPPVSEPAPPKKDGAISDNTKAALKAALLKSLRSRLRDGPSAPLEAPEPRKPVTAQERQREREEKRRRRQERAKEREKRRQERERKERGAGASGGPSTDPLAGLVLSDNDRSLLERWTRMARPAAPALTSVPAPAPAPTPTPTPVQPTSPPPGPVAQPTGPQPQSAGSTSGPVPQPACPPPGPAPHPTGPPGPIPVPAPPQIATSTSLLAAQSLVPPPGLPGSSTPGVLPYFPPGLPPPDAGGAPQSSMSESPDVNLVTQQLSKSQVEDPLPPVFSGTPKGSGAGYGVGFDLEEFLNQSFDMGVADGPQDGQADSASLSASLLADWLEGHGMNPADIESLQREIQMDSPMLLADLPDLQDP
The target in assay [6] is GTP-binding nuclear protein Ran (Homo sapiens, UniProt P62826).
The target in assay [7] is Interleukin-1 receptor-associated kinase 1 (Homo sapiens, UniProt P51617).
Chain of Interleukin-1 receptor-associated kinase 1 (P51617 whole entry): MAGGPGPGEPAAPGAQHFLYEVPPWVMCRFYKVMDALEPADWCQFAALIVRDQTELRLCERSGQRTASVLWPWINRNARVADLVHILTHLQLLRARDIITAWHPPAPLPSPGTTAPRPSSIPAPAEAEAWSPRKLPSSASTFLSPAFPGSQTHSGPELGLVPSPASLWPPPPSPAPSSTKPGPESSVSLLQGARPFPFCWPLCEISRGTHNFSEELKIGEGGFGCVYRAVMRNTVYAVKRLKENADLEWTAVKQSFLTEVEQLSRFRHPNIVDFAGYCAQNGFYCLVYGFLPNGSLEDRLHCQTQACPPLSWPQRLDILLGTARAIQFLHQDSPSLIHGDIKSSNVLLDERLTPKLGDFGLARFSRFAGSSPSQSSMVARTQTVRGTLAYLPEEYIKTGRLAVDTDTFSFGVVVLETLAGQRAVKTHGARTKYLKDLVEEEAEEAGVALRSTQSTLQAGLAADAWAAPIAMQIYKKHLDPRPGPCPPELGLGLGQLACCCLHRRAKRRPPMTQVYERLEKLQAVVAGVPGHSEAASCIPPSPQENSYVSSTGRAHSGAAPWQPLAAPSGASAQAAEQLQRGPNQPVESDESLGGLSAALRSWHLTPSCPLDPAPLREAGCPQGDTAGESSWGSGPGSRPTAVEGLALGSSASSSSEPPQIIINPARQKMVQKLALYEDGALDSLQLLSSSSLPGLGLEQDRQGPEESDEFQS
A further assay concerns the target T2, Pyridoxal kinase (Homo sapiens, UniProt O00764).
T2 sequence (O00764 whole entry): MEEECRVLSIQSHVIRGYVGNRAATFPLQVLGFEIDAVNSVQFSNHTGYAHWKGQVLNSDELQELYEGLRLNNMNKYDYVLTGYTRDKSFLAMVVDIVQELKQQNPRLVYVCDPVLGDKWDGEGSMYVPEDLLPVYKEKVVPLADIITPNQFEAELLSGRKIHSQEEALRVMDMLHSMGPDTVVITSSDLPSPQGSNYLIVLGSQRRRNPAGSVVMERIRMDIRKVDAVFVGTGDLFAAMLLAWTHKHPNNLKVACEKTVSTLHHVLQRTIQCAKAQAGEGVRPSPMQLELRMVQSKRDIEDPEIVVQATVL

The target in assay [8] is T3, Serine/threonine-protein kinase PLK4 (Homo sapiens, UniProt O00444).
T3 sequence (O00444 whole entry): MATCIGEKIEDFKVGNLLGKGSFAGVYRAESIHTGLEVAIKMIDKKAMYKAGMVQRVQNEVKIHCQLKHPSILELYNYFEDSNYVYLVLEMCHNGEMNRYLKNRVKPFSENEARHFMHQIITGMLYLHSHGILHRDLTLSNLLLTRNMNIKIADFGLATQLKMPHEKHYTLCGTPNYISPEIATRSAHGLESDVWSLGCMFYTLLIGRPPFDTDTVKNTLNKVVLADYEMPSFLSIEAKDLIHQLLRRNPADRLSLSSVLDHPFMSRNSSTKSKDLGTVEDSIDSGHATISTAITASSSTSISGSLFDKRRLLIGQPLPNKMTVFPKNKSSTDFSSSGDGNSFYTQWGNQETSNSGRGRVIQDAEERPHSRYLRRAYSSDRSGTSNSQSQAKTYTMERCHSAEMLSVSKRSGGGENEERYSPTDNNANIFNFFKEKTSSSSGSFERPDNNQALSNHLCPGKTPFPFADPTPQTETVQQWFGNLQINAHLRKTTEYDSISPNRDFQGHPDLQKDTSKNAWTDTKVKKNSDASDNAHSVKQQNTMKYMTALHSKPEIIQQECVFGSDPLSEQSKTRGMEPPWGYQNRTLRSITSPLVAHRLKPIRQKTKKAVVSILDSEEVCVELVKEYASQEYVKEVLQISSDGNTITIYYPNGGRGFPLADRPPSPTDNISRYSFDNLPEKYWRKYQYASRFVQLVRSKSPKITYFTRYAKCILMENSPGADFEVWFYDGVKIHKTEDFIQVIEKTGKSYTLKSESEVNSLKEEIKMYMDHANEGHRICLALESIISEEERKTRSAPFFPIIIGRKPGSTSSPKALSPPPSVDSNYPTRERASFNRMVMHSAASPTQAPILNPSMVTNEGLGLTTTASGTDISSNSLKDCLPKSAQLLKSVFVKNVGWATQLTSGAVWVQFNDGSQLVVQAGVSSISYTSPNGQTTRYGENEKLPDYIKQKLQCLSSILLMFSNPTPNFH

Each structure is given as a SMILES string. Active and inactive are the calls of the source. Rule as the data show it, for most assays here: actives have a measured Kd and inactives only a lower limit. A value given as a limit tells only on which side of the number the result lay.
Also: in the data inactive means no Kd found up to 30 µM.

Chain of Tyrosine-protein kinase ABL1 (P00519 whole entry): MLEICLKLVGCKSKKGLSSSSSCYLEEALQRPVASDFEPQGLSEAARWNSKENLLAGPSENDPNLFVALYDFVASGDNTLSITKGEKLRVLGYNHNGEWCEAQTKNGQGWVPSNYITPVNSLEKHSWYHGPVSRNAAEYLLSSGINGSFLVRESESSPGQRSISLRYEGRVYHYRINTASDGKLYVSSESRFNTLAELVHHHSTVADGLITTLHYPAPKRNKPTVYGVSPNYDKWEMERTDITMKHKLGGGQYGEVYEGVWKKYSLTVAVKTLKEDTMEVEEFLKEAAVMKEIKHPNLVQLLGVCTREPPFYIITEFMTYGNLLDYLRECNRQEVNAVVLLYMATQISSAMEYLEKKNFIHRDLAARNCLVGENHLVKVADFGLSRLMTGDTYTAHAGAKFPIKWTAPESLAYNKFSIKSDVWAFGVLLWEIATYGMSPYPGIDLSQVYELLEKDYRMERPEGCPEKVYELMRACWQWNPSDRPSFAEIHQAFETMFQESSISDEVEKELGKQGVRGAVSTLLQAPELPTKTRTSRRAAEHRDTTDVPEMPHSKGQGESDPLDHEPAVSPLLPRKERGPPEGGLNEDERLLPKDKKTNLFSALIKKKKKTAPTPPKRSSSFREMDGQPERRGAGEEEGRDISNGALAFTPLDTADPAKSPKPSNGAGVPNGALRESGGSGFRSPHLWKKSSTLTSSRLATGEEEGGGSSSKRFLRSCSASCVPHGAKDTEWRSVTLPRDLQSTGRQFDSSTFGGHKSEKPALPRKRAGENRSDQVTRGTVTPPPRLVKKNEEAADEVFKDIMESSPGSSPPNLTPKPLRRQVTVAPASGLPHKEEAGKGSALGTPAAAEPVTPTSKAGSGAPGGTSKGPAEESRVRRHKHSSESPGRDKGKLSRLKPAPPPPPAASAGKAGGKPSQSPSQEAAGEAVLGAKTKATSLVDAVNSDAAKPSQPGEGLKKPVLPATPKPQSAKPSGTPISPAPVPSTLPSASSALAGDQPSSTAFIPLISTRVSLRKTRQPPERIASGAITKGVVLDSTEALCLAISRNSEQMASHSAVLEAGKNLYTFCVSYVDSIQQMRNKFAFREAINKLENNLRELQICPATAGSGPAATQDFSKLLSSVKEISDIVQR
Chain of Citron Rho-interacting kinase (O14578 whole entry): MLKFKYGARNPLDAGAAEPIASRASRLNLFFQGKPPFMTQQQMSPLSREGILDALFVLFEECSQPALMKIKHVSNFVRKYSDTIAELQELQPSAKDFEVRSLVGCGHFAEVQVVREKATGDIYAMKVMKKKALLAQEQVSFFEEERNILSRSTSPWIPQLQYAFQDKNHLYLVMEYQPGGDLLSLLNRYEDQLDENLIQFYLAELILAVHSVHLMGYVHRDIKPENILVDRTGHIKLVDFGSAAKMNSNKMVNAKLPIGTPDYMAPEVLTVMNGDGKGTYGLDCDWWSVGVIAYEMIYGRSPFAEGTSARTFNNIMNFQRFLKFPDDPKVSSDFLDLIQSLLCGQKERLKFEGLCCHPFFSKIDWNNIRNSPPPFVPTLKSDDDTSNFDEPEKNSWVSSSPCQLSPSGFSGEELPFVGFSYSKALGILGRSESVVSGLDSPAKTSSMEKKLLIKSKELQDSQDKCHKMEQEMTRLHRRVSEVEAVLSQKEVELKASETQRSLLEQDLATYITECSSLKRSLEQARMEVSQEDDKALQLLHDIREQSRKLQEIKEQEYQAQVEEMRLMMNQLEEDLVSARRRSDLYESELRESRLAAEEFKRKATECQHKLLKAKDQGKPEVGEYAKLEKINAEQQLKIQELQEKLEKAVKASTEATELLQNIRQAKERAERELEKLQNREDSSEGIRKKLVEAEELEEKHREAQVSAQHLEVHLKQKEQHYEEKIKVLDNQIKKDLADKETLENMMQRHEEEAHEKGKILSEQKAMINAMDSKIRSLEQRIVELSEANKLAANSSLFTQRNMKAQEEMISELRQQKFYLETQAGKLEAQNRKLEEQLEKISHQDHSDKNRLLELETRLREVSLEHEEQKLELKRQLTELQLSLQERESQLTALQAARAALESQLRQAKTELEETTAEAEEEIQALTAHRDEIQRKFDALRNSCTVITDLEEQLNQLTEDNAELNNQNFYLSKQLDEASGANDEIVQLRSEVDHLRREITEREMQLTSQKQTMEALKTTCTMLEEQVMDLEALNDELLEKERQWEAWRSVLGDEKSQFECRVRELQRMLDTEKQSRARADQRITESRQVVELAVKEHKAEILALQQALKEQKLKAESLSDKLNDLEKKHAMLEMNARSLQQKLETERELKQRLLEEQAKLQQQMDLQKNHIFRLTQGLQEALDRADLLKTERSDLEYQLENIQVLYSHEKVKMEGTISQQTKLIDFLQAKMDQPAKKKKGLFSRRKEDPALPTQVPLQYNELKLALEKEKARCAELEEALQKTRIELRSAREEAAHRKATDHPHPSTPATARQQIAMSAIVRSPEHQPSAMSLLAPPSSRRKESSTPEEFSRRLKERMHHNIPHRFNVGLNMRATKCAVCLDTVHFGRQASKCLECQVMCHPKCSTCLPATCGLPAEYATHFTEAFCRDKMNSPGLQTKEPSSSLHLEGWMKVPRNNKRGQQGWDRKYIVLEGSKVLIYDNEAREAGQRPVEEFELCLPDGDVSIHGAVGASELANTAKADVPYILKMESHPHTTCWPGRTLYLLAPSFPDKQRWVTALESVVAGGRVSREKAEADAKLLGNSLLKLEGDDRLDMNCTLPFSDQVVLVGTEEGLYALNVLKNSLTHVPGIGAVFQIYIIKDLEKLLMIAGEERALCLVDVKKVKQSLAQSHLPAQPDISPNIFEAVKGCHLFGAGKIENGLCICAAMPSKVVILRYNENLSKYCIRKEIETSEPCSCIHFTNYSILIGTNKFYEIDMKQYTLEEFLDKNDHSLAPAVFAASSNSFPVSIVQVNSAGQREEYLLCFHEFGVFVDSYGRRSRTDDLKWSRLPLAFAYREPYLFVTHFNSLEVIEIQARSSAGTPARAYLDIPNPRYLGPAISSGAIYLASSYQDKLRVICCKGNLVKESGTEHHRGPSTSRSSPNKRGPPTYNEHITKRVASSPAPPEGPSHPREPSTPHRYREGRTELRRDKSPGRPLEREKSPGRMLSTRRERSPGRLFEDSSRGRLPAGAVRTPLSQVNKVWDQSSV
Chain of Mitogen-activated protein kinase 8 (P45983 whole entry): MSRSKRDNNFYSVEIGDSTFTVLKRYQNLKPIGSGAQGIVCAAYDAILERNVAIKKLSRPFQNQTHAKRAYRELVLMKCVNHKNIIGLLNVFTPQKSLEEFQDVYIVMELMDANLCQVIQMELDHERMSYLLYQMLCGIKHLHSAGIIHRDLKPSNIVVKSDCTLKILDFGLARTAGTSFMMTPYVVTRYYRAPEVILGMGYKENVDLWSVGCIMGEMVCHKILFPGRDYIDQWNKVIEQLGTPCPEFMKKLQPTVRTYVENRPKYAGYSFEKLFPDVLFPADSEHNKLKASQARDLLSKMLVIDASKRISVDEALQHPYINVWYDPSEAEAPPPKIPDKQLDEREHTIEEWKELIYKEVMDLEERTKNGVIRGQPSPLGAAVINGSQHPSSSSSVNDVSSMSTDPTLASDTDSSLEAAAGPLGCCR

As usually defined, the Kd is the free concentration of one partner at which half of the binding sites on the other are occupied at equilibrium, for simple one-to-one binding. Regarding `O=C1NC(=O)[C@@H](c2cn3c4c(cccc24)CCC3)[C@@H]1c1c[nH]c2ccccc12` [TIVANTINIB], the Kd (in [1]; in assay [2]; in [3]; at Insulin receptor; in assay [4]; in assay [5]) was > 30 µM (inactive) in each case. Also, the Kd (in [6]; in assay [7]; at Pyridoxal kinase; in [8]) was > 30 µM (inactive) each time.

With `C[C@@H](NC(=O)c1ncnc(N)c1Cl)c1ncc(C(=O)Nc2cc(C(F)(F)F)c(Cl)cn2)s1` [TOVORAFENIB], the Kd in assay [1] is > 30 µM (inactive); in [2], > 30 µM (inactive); in [3] it was > 30 µM (inactive); at Insulin receptor, > 30 µM (inactive); in assay [4], 0.498 µM (active); in assay [5], > 30 µM (inactive). The Kd (in assay [6]; in [7]; at Pyridoxal kinase; in [8]) was > 30 µM (inactive) in each case.

As to `Cc1cc(Nc2ncnc3ccc(NC4=NC(C)(C)CO4)cc23)ccc1Oc1ccn2ncnc2c1` [TUCATINIB], the Kd (in assay [1]; in [2]; in assay [3]; at Insulin receptor; in [4]; in [5]) was > 30 µM (inactive) each time. Further, the Kd (in assay [6]; in assay [7]; at Pyridoxal kinase; in assay [8]) was > 30 µM (inactive) each time.

On to `CC(C)c1cc(CNc2nc(Nc3cc(C4CC4)[nH]n3)cc(N3CCN(C)CC3)n2)on1` [XL-228], for which the Kd in assay [1] was > 30 µM (inactive); in assay [2], > 30 µM (inactive); in assay [3], > 30 µM (inactive); on Insulin receptor it was 0.144 µM (active); in assay [4] it was 0.075 µM (active); in assay [5] it was > 30 µM (inactive). In addition, the Kd in assay [6] is > 30 µM (inactive); in [7], > 30 µM (inactive); on Pyridoxal kinase it was > 30 µM (inactive); in assay [8], 0.003 µM (active).

With `C[C@@H](N)c1ccc(C(=O)Nc2ccnc3[nH]ccc23)cc1` [Y-39983], the Kd in assay [1] is > 30 µM (inactive); in assay [2] it was 0.033 µM (active); in assay [3] it was > 30 µM (inactive); at Insulin receptor it was > 30 µM (inactive); in assay [4], > 30 µM (inactive); in assay [5] it was > 30 µM (inactive). Also, the Kd (in assay [6]; in [7]; at Pyridoxal kinase; in assay [8]) was > 30 µM (inactive) in each case.

Regarding `CN1C/C=C/CCOc2cccc(c2)-c2ccnc(n2)Nc2cccc(c2)C1` [ZOTIRACICLIB], the dissociation constant Kd was 1.46 µM (active) in [1]; > 30 µM (inactive) in assay [2]; > 30 µM (inactive) in assay [3]; > 30 µM (inactive) at Insulin receptor; 32.2 µM in assay [4]; > 30 µM (inactive) in assay [5]. Besides, the Kd (in [6]; in assay [7]; on Pyridoxal kinase; in assay [8]) was > 30 µM (inactive) each time.

(Values after ChEMBL document CHEMBL3991601, “The target landscape of clinical kinase drugs” (Science, 2017).)
